The results in this text go back to patent publication US20250230165A1, “HETEROCYCLIC COMPOUNDS FOR USE IN THE TREATMENT OF CANCER” (ARTIOS PHARMA LIMITED, priority 2021, published 2025).

This assay deals with T1, Human Polθ polymerase domain (aa1820-2590) (Homo sapiens, UniProt O75417).
T1 construct: Human Polθ polymerase domain (aa1820-2590) was expressed in E. coli; made in house; host or cells: E. coli
T1 sequence (O75417 1820-2590): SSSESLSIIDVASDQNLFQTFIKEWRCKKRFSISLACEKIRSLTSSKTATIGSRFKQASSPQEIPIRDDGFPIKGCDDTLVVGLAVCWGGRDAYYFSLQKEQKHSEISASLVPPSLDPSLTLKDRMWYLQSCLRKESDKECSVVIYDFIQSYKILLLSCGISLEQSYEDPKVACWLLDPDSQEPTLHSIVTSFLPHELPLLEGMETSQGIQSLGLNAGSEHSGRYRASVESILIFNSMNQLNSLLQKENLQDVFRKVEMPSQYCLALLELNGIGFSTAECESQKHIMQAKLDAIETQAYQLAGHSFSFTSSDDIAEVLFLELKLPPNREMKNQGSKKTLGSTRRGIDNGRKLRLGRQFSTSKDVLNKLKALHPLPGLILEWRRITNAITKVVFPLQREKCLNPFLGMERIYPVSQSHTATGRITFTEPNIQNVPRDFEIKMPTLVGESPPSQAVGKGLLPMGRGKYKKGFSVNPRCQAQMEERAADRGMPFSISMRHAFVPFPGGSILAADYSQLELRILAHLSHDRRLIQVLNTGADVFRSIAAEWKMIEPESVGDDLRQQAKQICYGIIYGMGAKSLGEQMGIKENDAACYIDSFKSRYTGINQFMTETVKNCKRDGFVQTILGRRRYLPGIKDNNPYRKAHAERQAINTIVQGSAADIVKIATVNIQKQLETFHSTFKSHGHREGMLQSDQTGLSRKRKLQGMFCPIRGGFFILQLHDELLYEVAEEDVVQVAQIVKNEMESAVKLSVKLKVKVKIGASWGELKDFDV
Put plainly: Polθ Polymerase Domain Kinact/KI Assay (PicoGreen). To be noted: 0.8 nM Polθ, 100 nM DNA substrate, kobs vs [I] fit for 2-step covalent inhibitor. The class given is biochemical. In a few lines:
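PicoGreen fluorescence read-out of primer extension; progress curves per inhibitor concentration fitted for kobs, then kobs vs [I] fitted to a two-step covalent model to give Kinact and KI. Conditions: 0.8 nM enzyme, 100 nM DNA substrate, […].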
The compound `C=CC(=O)N1Cc2cc(CN3C[C@H]4CC(=O)N(c5cc(C(F)(F)F)cc(C)n5)[C@@H]4C(=O)N(C)c4cccc(Cl)c43)ccc2[C@@H]1CC#N` (racemic) [Example 287a, 2-((S/R)-2-acryloyl-5-(((3aR,11aS)-6-chloro-10-methyl-1-(6-methyl-4-(trifluoromethyl)pyridin-2-yl)-2,11-dioxo-1,2,3,3a,4,10,11,11a-octahydro-5H-benzo[b]pyrrolo[2,3-f][1,4]diazocin-5-yl)methyl)isoindolin-1-yl)acetonitrile] had a Kinact/Kl of 930000 M⁻¹ s⁻¹.
As for `C=CC(=O)N1Cc2ccc(CN3C[C@H]4CC(=O)N(c5cc(C(F)(F)F)cc(C)n5)[C@@H]4C(=O)N(C)c4cccc(Cl)c43)cc2[C@@H]1CC#N` (racemic) [Example 288b, 2-((S/R)-2-acryloyl-6-(((3aR,11aS)-6-chloro-10-methyl-1-(6-methyl-4-(trifluoromethyl)pyridin-2-yl)-2,11-dioxo-1,2,3,3a,4,10,11,11a-octahydro-5H-benzo[b]pyrrolo[2,3-f][1,4]diazocin-5-yl)methyl)isoindolin-1-yl)acetonitrile], the figure is 500000 M⁻¹ s⁻¹; as for `C=CC(=O)N1Cc2ccc(CN3C[C@H]4CC(=O)N(c5cc(C(F)(F)F)cc(C)n5)[C@@H]4C(=O)N(C)c4cccc(Cl)c43)nc2[C@@H]1CC#N` (racemic) [Example 289b, 2-((S/R)-6-acryloyl-2-(((3aR,11aS)-6-chloro-10-methyl-1-(6-methyl-4-(trifluoromethyl)pyridin-2-yl)-2,11-dioxo-1,2,3,3a,4,10,11,11a-octahydro-5H-benzo[b]pyrrolo[2,3-f][1,4]diazocin-5-yl)methyl)-6,7-dihydro-5H-pyrrolo[3,4-b]pyridin-7-yl)acetonitrile], 1.24e+06 M⁻¹ s⁻¹; as for `C=CC(=O)N1Cc2nc(CN3C[C@H]4CC(=O)N(c5cc(C(F)(F)F)cc(C)n5)[C@@H]4C(=O)N(C)c4cccc(Cl)c43)ccc2[C@@H]1CC#N` (racemic) [Example 290a], 2.02e+06 M⁻¹ s⁻¹.
As for `C=CC(=O)N1Cc2ncc(CN3C[C@H]4CC(=O)N(c5cc(C(F)(F)F)cc(C)n5)[C@@H]4C(=O)N(C)c4cccc(Cl)c43)cc2[C@@H]1CC#N` (racemic) [Example 291b, 2-((S/R)-6-acryloyl-3-(((3aR,11aS)-6-chloro-10-methyl-1-(6-methyl-4-(trifluoromethyl)pyridin-2-yl)-2,11-dioxo-1,2,3,3a,4,10,11,11a-octahydro-5H-benzo[b]pyrrolo[2,3-f][1,4]diazocin-5-yl)methyl)-6,7-dihydro-5H-pyrrolo[3,4-b]pyridin-5-yl)acetonitrile], the figure is 1.48e+06 M⁻¹ s⁻¹; as for `C=CC(=O)N1Cc2cc(CN3C[C@H]4CC(=O)N(c5cc(C(F)(F)F)cc(C)n5)[C@@H]4C(=O)N(C)c4cccc(Cl)c43)cnc2[C@@H]1CC#N` (racemic) [Example 292a, 2-((S/R)-6-acryloyl-3-(((3aR,11aS)-6-chloro-10-methyl-1-(6-methyl-4-(trifluoromethyl)pyridin-2-yl)-2,11-dioxo-1,2,3,3a,4,10,11,11a-octahydro-5H-benzo[b]pyrrolo[2,3-f][1,4]diazocin-5-yl)methyl)-6,7-dihydro-5H-pyrrolo[3,4-b]pyridin-7-yl)acetonitrile], 2.97e+06 M⁻¹ s⁻¹.
As for `C=CC(=O)N1Cc2nc(CN3C[C@H]4CC(=O)N(c5cc(C(F)(F)F)cc(C)n5)[C@@H]4C(=O)N(C)c4cccc(Cl)c43)cn2C[C@H]1C(F)(F)F` (racemic) [Example 293a, (3aR,11aS)-5-(((S/R)-7-acryloyl-6-(trifluoromethyl)-5,6,7,8-tetrahydroimidazo[1,2-a]pyrazin-2-yl)methyl)-6-chloro-10-methyl-1-(6-methyl-4-(trifluoromethyl)pyridin-2-yl)-1,3a,4,5,10,11a-hexahydro-2H-benzo[b]pyrrolo[2,3-f][1,4]diazocine-2,11(3H)-dione], the figure is 880000 M⁻¹ s⁻¹.
Turning to `C=CC(=O)N1Cc2cc(CN3C[C@H]4CC(=O)N(c5cc(C(F)(F)F)cc(C)n5)[C@@H]4C(=O)N(C)c4cccc(Cl)c43)nn2C[C@@H]1C` (racemic) [Example 294b, (3aR,11aS)-5-(((S/R)-5-acryloyl-6-methyl-4,5,6,7-tetrahydropyrazolo[1,5-a]pyrazin-2-yl)methyl)-6-chloro-10-methyl-1-(6-methyl-4-(trifluoromethyl)pyridin-2-yl)-1,3a,4,5,10,11a-hexahydro-2H-benzo[b]pyrrolo[2,3-f][1,4]diazocine-2,11(3H)-dione], the Kinact/Kl is 2.48e+06 M⁻¹ s⁻¹.
In the case of `Cc1cc(C(F)(F)F)cc(N2C(=O)C[C@@H]3CN(Cc4ccc5c(c4)CN(C(=O)/C=C/CN(C)C)[C@H]5CC#N)c4c(Cl)cccc4N(C)C(=O)[C@H]32)n1` (racemic) [Example 310a, 2-((S/R)-5-(((3aR,11aS)-6-chloro-10-methyl-1-(6-methyl-4-(trifluoromethyl)pyridin-2-yl)-2,11-dioxo-1,2,3,3a,4,10,11,11a-octahydro-5H-benzo[b]pyrrolo[2,3-f][1,4]diazocin-5-yl)methyl)-2-((E)-4-(dimethylamino)but-2-enoyl)isoindolin-1-yl)acetonitrile] it was 2.31e+06 M⁻¹ s⁻¹; in that of `Cc1cc(C(F)(F)F)cc(N2C(=O)C[C@@H]3CN(Cc4ccc5c(c4)[C@H](CC#N)N(C(=O)/C=C/CN(C)C)C5)c4c(Cl)cccc4N(C)C(=O)[C@H]32)n1` (racemic) [Example 311b, 2-((S/R)-6-(((3aR,11aS)-6-chloro-10-methyl-1-(6-methyl-4-(trifluoromethyl)pyridin-2-yl)-2,11-dioxo-1,2,3,3a,4,10,11,11a-octahydro-5H-benzo[b]pyrrolo[2,3-f][1,4]diazocin-5-yl)methyl)-2-((E)-4-(dimethylamino)but-2-enoyl)isoindolin-1-yl)acetonitrile], 1.22e+06 M⁻¹ s⁻¹; in that of `C=CC(=O)N1Cc2ccc(CN3C[C@H]4CC(=O)N(c5cc(C(F)(F)F)cc(C)n5)[C@@H]4C(=O)N(C)c4cccc(C)c43)nc2[C@H]1CC#N` (racemic) [Example 318a, 2-((R/S)-6-acryloyl-2-(((3aR,11aS)-6,10-dimethyl-1-(6-meth-yl-4-(trifluorometh-yl)pyridin-2-yl)-2,11-dioxo-1,2,3,3a, 4,10,11,11a-octa-hydro-5H-benzo[b]pyrrolo[2,3-f][1,4]diazocin-5-yl)meth-yl)-6,7-dihydro-5H-pyrrolo[3,4-b]pyr-idin-7-yl)acetonitrile], 1.9e+06 M⁻¹ s⁻¹.
As for `C=CC(=O)N1Cc2ccc(CN3C[C@H]4CC(=O)N(c5cc(C(F)(F)F)cc(C)n5)[C@@H]4C(=O)N(C)c4cccc(C)c43)nc2[C@@H]1CC#N` (racemic) [Example 318b, 2-((S/R)-6-acryloyl-2-(((3aR,11aS)-6,10-dimethyl-1-(6-meth-yl-4-(trifluorometh-yl)pyridin-2-yl)-2,11-dioxo-1,2,3,3a, 4,10,11,11a-octa-hydro-5H-benzo[b]pyrrolo[2,3-f][1,4]diazocin-5-yl)meth-yl)-6,7-dihydro-5H-pyrrolo[3,4-b]pyr-idin-7-yl)acetonitrile], the figure is 1.56e+06 M⁻¹ s⁻¹.
